From patent US11053243B2 (Merck Sharp & Dohme Corp., priority 2009, dated 2021) come the findings set out here.

For the assay, the system named is HCV genotype 1b replicon. As to the kind of experiment: HCV replicon assay, genotype 1b. Particulars: Hepatitis C virus; genotype 1b replicon cells, 24 to 72 hours incubation, luciferase activity. It is filed as cell-based, hepatitis C virus. How it is done: The HCV replicons and NS5A inhibitory activity of the present compounds may be tested using assays known in the art. HCV inhibitors, such as those described in the Examples herein have activities in genotype 1b, 2a and 1a replicon assays of from about 1 pM to about 1 μM. The assay is performed by incubating a replicon harboring cell-line in the presence of inhibitor for a set period of time and measuring the effect of the inhibitor on HCV replicon replication either directly by quantifying replicon RNA level, or indirectly by measuring enzymatic activity of a co-encoded reporter enzyme such as luciferase or β-lactamase. By performing a series of such measurements at different inhibitor concentrations, the effective inhibitory concentration of the inhibitor (EC50 or EC90) is determined. See Jan M. Vrolijk et al., A replicons-based bioassay for the measurement of interferons in patients with chronic hepatitis C, 110 J. VIROLOGICAL METHODS 201 (2003). Such assays may also be run in an automated format for high through-put screening. See Paul Zuck et al., A cell-based β-lactamase reporter gene assay for the identification of inhibitors of hepatitis C virus replication, 334 ANALYTICAL BIOCHEMISTRY 344 (2004).
Measurement of inhibition by compounds was performed using the HCV replicon system. Several different replicons encoding different HCV genotypes or mutations were used. In addition, potency measurements were made using different formats of the replicon assay, including different ways of measurements and different plating formats. See Jan M. Vrolijk et al., A replicons-based bioassay for the measurement of interferons in patients with chronic hepatitis C, 110 J. VIROLOGICAL METHODS 201 (2003); Steven S. Carroll et al., Inhibition of Hepatitis C Virus RNA Replication by 2′-Modified Nucleoside Analogs, 278(14) J. BIOLOGICAL CHEMISTRY 11979 (2003). However, the underlying principles are common to all of these determinations, and are outlined below.
Stable neomycin phosphotransferase encoding replicon-harboring cell lines were used, so all cell lines were maintained under G418 selection prior to the assay. In some cases, the cell lines encoded a luciferase:Neor fusion and could be assayed either directly by determination of RNA copy number, or indirectly through measurement of the luciferase activity.
To initiate an assay, replicon cells were plated in the presence of a dilution series of test compound in the absence of G418. Typically, the assays were performed in a 96-well plate format for manual operation, or a 384-well plate in an automated assay. Replicon cells and compound were incubated for 24 to 72 hours. At the end of the assay, cells are washed free of media and compound and then lysed. Luciferase activity was measured using a conventional luciferase assay. EC50 determinations were calculated as a percent of a DMSO control by fitting the data to a four parameter fit function.
The activity table below provides representative data illustrating observed activity against genotype 1b.
A word on the EC50: it is the concentration that produces a half-maximal response. A high value points to a need for much substance. The compound `CC(C)(C)OC(=O)N[C@@H](C(=O)N1CCC[C@H]1C(=O)Nc1ccc2[nH]c(-c3ccc(-c4cnc([C@@H]5CCCN5C(=O)OCc5ccccc5)[nH]4)cc3)cc2c1)c1ccccc1` [Example 100, benzyl (2S)-2-[5-(4-{5-[(1-{(2R)-2-[(tert-butoxycarbonyl)amino]-2-phenylacetyl}-L-prolyl)amino]-1H-indol-2-yl}phenyl)-1H-imidazol-2-yl]pyrrolidine-1-carboxylate] yielded an EC50 of 0.031 nM.
Compound `CN(C)[C@@H](C(=O)N1CCC[C@H]1C(=O)Nc1ccc2[nH]c(-c3ccc(-c4cnc([C@@H]5CCCN5C(=O)[C@@H](c5ccccc5)N(C)C)[nH]4)cc3)cc2c1)c1ccccc1` [Example 101, 1-[(2R)-2-(dimethylamino)-2-phenylacetyl]-N-{2-[4-(2-{(2S)-1-[(2R)-2-(dimethylamino)-2-phenylacetyl]pyrrolidin-2-yl}-1H-imidazol-5-yl)phenyl]-1H-indol-5-yl}-L-prolinamide] showed an EC50 of 0.5 nM.
`CC(C)(C)OC(=O)N[C@@H](C(=O)N1CCC[C@H]1C(=O)Nc1ccc2[nH]c(-c3ccc(-c4c[nH]cn4)cc3)cc2c1)c1ccccc1` [Example 102, tert-butyl {(1R)-2-[(2S)-2-({2-[4-(1H-imidazol-4-yl)phenyl]-1H-indol-5-yl}carbamoyl)pyrrolidin-1-yl]-2-oxo-1-phenylethyl}carbamate] showed an EC50 of 8.3 nM.
In the case of `CN(C)[C@H](C(=O)N1CCC[C@H]1C(=O)Nc1ccc2[nH]c(-c3ccc(-c4cnc([C@@H]5CCCN5C(=O)[C@H](c5ccccc5)N(C)C)[nH]4)cc3)cc2c1)c1ccccc1` [Example 103, 1-[(2S)-2-(dimethylamino)-2-phenylacetyl]-N-{2-[4-(2-{(2S)-1-[(2S)-2-(dimethylamino)-2-phenylacetyl]pyrrolidin-2-yl}-1H-imidazol-5-yl)phenyl]-1H-indol-5-yl}-L-prolinamide], the midpoint of the response, the EC50, lay at 5.7 nM.
For `CC(=O)N1CCC[C@H]1c1ncc(-c2ccc(-c3cc4cc(NC(=O)[C@@H]5CCCN5C(=O)[C@H](NC(=O)OC(C)(C)C)c5ccccc5)ccc4[nH]3)cc2)[nH]1` [Example 105, tert-butyl{(1R)-2-[(2S)-2-{[2-(4-{2-[(2S)-1-acetylpyrrolidin-2-yl]-1H-imidazol-5-yl}phenyl)-1H-indol-5-yl]carbamoyl}pyrrolidin-1-yl]-2-oxo-1-phenylethyl}carbamate] the value was 0.08 nM.
`CN(C)[C@@H](C(=O)N1CCC[C@H]1c1ncc(-c2ccc(-c3cc4cc(NC(=O)[C@@H]5CCCN5C(=O)[C@H](NC(=O)OC(C)(C)C)c5ccccc5)ccc4[nH]3)cc2)[nH]1)c1ccccc1` [Example 107, tert-butyl {(1R)-2-[(2S)-2-({2-[4-(2-{(2S)-1-[(2R)-2-(dimethylamino)-2-phenylacetyl]pyrrolidin-2-yl}-1H-imidazol-5-yl)phenyl]-1H-indol-5-yl}carbamoyl)pyrrolidin-1-yl]-2-oxo-1-phenylethyl}carbamate] displayed an EC50 of 0.04 nM.
Turning to `COC(=O)N[C@H](C(=O)N1CCC[C@H]1C(=O)Nc1ccc2[nH]c(-c3ccc(-c4cnc([C@@H]5CCCN5C(=O)[C@@H](NC(=O)OC)C(C)C)[nH]4)cc3)cc2c1)C(C)C` [Example 116, N-(methoxycarbonyl)-L-valyl-N-{2-[4-(2-{(2S)-1-[N-(methoxycarbonyl)-L-valyl]pyrrolidin-2-yl}-1H-imidazol-5-yl)phenyl]-1H-indol-5-yl}-L-prolinamide], a half-maximal response (EC50) required 0.065 nM.
In the case of `CC(C)OC(=O)N[C@@H](C(=O)N1CCC[C@H]1C(=O)Nc1ccc2[nH]c(-c3ccc(-c4ncc([C@@H]5CCCN5C(=O)[C@H](NC(=O)OC(C)C)c5ccccc5)[nH]4)cc3)cc2c1)c1ccccc1` [Example 119, propan-2-yl [(1R)-2-oxo-1-phenyl-2-{(2S)-2-[2-(4-{5-[({(2S)-1-[(2R)-2-phenyl-2-{[(propan-2-yloxy)carbonyl]amino}acetyl]pyrrolidin-2-yl}carbonyl)amino]-1H-indol-2-yl}phenyl)-1H-imidazol-5-yl]pyrrolidin-1-yl}ethyl]carbamate], a half-maximal effect (EC50) was put at 0.013 nM.
The compound `CC(C)(C)OC(=O)N[C@@H](C(=O)N1CCC[C@H]1C(=O)Nc1ccc2[nH]c(-c3ccc4[nH]c([C@@H]5CCCN5C(=O)[C@H](NC(=O)OC(C)(C)C)c5ccccc5)nc4c3)cc2c1)c1ccccc1` [Example 125, tert-butyl [(1R)-2-{(2S)-2-[(2-{2-[(2S)-1-{(2R)-2-[(tert-butoxycarbonyl)amino]-2-phenylacetyl}pyrrolidin-2-yl]-1H-benzimidazol-5-yl}-1H-indol-5-yl)carbamoyl]pyrrolidin-1-yl}-2-oxo-1-phenylethyl]carbamate] showed a half-maximal effective concentration (EC50) of 0.016 nM.
Take `O=C(Nc1ccc(-c2[nH]c3ccc(NC(=O)[C@@H]4CCCN4C(=O)Cc4ccccc4)cc3c2F)cc1)[C@@H]1CCCN1C(=O)Cc1ccccc1` [Example 129, (2S)-N-{4-[3-fluoro-5-({[(2S)-1-(phenylacetyl)pyrrolidin-2-yl]carbonyl}amino)-1H-indol-2-yl]phenyl}-1-(phenylacetyl) pyrrolidine-2-carboxamide]: the half-maximal effective concentration (EC50) was 0.7 nM.
Compound `CC(C)(C)OC(=O)N[C@H](C(=O)N1CCC[C@H]1C(=O)Nc1ccc(-c2[nH]c3ccc(NC(=O)[C@@H]4CCCN4C(=O)[C@@H](NC(=O)OC(C)(C)C)c4ccccc4)cc3c2F)cc1)c1ccccc1` [Example 130, tert-butyl {(1S)-2-[(2S)-2-({4-[5-({[(2S)-1-{(2S)-2-[(tert-butoxycarbonyl)amino]-2-phenylacetyl}pyrrolidin-2-yl]carbonyl}amino)-3-fluoro-1H-indol-2-yl]phenyl}carbamoyl)pyrrolidin-1-yl]-2-oxo-1-phenylethyl}carbamate] showed an EC50 of 0.05 nM.
`CC(=O)Nc1ccc(-c2[nH]c3ccc(NC(=O)[C@@H]4CCCN4C(=O)[C@@H](NC(=O)OC(C)(C)C)c4ccccc4)cc3c2Cl)cc1` [Example 131, tert-butyl {(1S)-2-[(2S)-2-({2-[4-(acetylamino)phenyl]-3-chloro-1H-indol-5-yl}carbamoyl)pyrrolidin-1-yl]-2-oxo-1-phenylethyl}carbamate] gave an EC50 of 17 nM.
For `CC(=O)N1CCC[C@H]1C(=O)Nc1ccc(-c2[nH]c3ccc(NC(=O)[C@@H]4CCCN4C(=O)[C@H](NC(=O)OC(C)(C)C)c4ccccc4)cc3c2F)cc1` [Example 137, tert-butyl {(1R)-2-[(2S)-2-({2-[4-({[(2S)-1-acetylpyrrolidin-2-yl]carbonyl}amino)phenyl]-3-fluoro-1H-indol-5-yl}carbamoyl)pyrrolidin-1-yl]-2-oxo-1-phenylethyl}carbamate], the EC50 stood at 0.009 nM.
For `CC(C)(C)OC(=O)N[C@@H](C(=O)N1CCC[C@H]1C(=O)Nc1ccc2[nH]c(-c3ccc(N4CCCC4=O)cc3)c(F)c2c1)c1ccccc1` [Example 138, tert-butyl {(1R)-2-[(2S)-2-({3-fluoro-2-[4-(2-oxopyrrolidin-1-yl)phenyl]-1H-indol-5-yl}carbamoyl)pyrrolidin-1-yl]-2-oxo-1-phenylethyl}carbamate] the value was 8.5 nM.
On to `CC(C)OC(=O)N[C@@H](C(=O)N1CCC[C@H]1C(=O)Nc1ccc(-c2[nH]c3ccc(NC(=O)[C@@H]4CCCN4C(=O)OC(C)(C)C)cc3c2F)cc1)c1ccccc1` [Example 144, tert-butyl (2S)-2-[(3-fluoro-2-{4-[({(2S)-1-[(2R)-2-phenyl-2-{[(propan-2-yloxy)carbonyl]amino}acetyl]pyrrolidin-2-yl}carbonyl)amino]phenyl}-1H-indol-5-yl)carbamoyl] pyrrolidine-1-carboxylate], for which the EC50 amounted to 0.036 nM.
Turning to `N#Cc1c(-c2ccc(NC(=O)[C@@H]3CCCN3C(=O)Cc3ccccc3)cc2)[nH]c2ccc(NC(=O)[C@@H]3CCCN3C(=O)Cc3ccccc3)cc12` [Example 155, (2S)—N-{4-[3-cyano-5-({[(2S)-1-(phenylacetyl)pyrrolidin-2-yl]carbonyl}amino)-1H-indol-2-yl]phenyl}-1-(phenylacetyl)pyrrolidine-2-carboxamide], the EC50 amounted to 0.9 nM.
